Assays:
[1] = tested on: RA patients treated with adalimumab in clinical trials in North America and Europe
Method: The rate of TB was calculated for the period before screening was initiated (primarily Phase I trials) and the period after screening was implemented. The screening program consisted of a clinical interview, a tuberculin skin test, and, in most patients, a chest X-ray (CXR). The definition of PPD-positive depended on local country-specific guidelines. For those people who were PPD-positive, or for whom the investigator felt the risk of TB reactivation was high, INH was given for prophylaxis.
The methodology differed among protocols. For instance, in Europe and Australia, it was initially used CXR only, and in later studies, CXR and purified protein derivative skin test (PPD) were both used. By contrast, in US and Canada, CXR and PPD were both used.

[2] = tested on: MTX-naïve adult patients with early RA (<3 years); assay: Study J: escalation of injectable medicine from eow to weekly dosing; format: in vivo, human
Method: Study J was a 2-year, double-blind, active comparator-controlled, Phase III study. […] In patients receiving ADA+MTX or MTX monotherapy, the 7.5 mg MTX weekly dosage increased to 20 mg over 8 weeks, as tolerated and as needed. Monotherapy patients received either placebo pills (adalimumab arm) or placebo injections (MTX arm). Efficacy outcomes measured included ACR response, DAS28 remission, major clinical response, and radiographic change from baseline.
MTX optimization was required before starting weekly injections (to 20 mg weekly, maximum). Once initiated, weekly dosing of injectable medicine was to be maintained until end of study. Criteria for identification of dosage escalators were a sequence of 4 consecutive injections for which the interval for every two consecutive injections was ≦10 days, and/or that the date of escalation, defined as the second of the 4 injections, had to be on or after Week 16 in Year 1. Three dosage escalator categories were defined, based on best ACR response rate achieved any time prior to escalation: Group A=ACR non-responders (never achieved ACR20 prior to dosage escalation), Group B=Partial responders (achieved ACR20 or ACR50 at least once prior to escalation, but never ACR70), and Group C=ACR70 responders (achieved ACR70 at least once prior to escalation). Data are from the intention-to-treat (ITT) population, with missing data analyzed by non-responder imputation (NRI) for clinical measures and by linear imputation for total Sharp scores (TSS).

[3] = tested on: patients with RA; assay: Study I (adalimumab 40 mg eow + MTX vs placebo + MTX, 24 weeks): FACIT-F fatigue; format: in vivo, human; settings: for mean FACIT-F change from baseline: week 24 (6 months)
Method: FACIT-F was administered at baseline, at 1 or 2 time points during the study, and at the end of the study. The questionnaire asked each patient the following “Below is a list of statements that other people with your illness have said are important. By circling one (1) number per line, please indicate how true each statement has been for you during the past 7 days.” The questions in the questionnaire used to determine the FACIT score included the following, where each patient indicated the appropriate number (0-4): I feel fatigued; I feel weak all over; I feel listless (“washed out”); I feel tired; I have trouble starting things because I am tired; I have trouble finishing things because I am tired; I have energy; I am able to do my usual activities; I need to sleep during the day; I am too tired to eat; I need help doing my usual activities; I am frustrated by being too tired to do the things I want to do; I have to limit my social activity because I am tired. FACIT-F scores range from 0-52, with higher scores representing less fatigue. FACIT-F changes of ≧4 are considered clinically meaningful.
For Study I, the mean change in baseline for the FACIT-F score at 6 months was 8.1 for ada 40 mg eow+mtx and 2.5 for placebo+mtx (p=0.01). The minimum clinical important difference was determined to be ≧4.0.

[4] = tested on: patients with RA; assay: Study I: HUI3 health utility; format: in vivo, human; settings: for mean HUI3 change from baseline: week 24 (6 months)
Method: Inclusion criteria for this study included: all patients had severe active disease; and all patients had failed prior DMARD(s).
The Health Utilities Index Mark 3 (HUI3) was assessed at three time points. HUI 3 consists of 8 attributes: vision, hearing, speech, ambulation, dexterity, emotion, cognition, and pain. HUI3 score changes of ≧0.03 are considered clinically important. […] As can also be seen in this figure, the Study 2 study population started with baseline values reflecting a patient population with a more severe disease activity than in Study I, as documented by TJC, SJC, HAQ, CRP, and number of previous DMARDs.

[5] = tested on: patients with moderate to severe RA; assay: Study 1: Health Utilities Index Mark 3 (HUI3); format: in vivo, human; settings: week 52
Method: The HUI3 was assessed at baseline, and at several time points during the study. Health Utility Index 3 (scale=0-1) measures preference of a health state, with “1” denoting perfect health and “0” denoting death. HUI3 changes of ≧0.03 are considered clinically important. The HUI3 classification system consists of 8 attributes and 5 or 6 levels on each attribute, ranging from full function to severe impairment.

[6] = tested on: patients with long-standing RA who had inadequate responses to MTX; assay: Study 1 (adalimumab + MTX vs placebo + MTX, 12-month RCT plus OLE): radiographic progression (TSS, JE, JSN); format: in vivo, human
Method: The study design included a 12 month, double blind, randomized, placebo-controlled trial.
Patients were grouped into three cohorts based on baseline CRP concentrations: low (<1 mg/dL); intermediate (1-4 mg/dL); and high (>4 mg/dL). Analyses were further conducted in two categories of patients according to their change in CRP concentrations at Week 12: those with a ≧20% decrease in CRP from baseline; or those with a <20% decrease in CRP from baseline. The following efficacy and radiographic measures were analyzed at Week 52 in the three baseline CRP categories and in the two Week 12 change in CRP categories: DAS28, ACR 20/50/70, Health assessment questionnaire (HAQ), and Total Sharp score (TSS).
Two readers assessed X-rays performed at baseline (start of RCT), 1 year (end of RCT), and 3 years (post 2 years OLE). Changes from baseline in Total Sharp Score (TSS), Joint Erosions (JE), and Joint Space Narrowing (JSN) were calculated. ACR 20, 50, and 70 response rates, as well as TJC and SJC, were also measured.

## NNC(=O)c1ccncc1 [INH, isoniazid, reference compound]
[1]; 835 patients who received INH
  patients who developed TB after INH prophylaxis: 0.5%
[1]; Study A, 712 high-risk subjects given INH before adalimumab
  subjects who developed TB after INH prophylaxis: 0.6%

## CN(Cc1cnc2nc(N)nc(N)c2n1)c1ccc(C(=O)N[C@@H](CCC(=O)O)C(=O)O)cc1 [MTX Monotherapy]
[2]; 1 year
  Patients who became ACR20 responders after increase to weekly dosing: 4%
  Patients who became ACR50 responders after increase to weekly dosing: 1%
  Patients who reached DAS28 < 2.6 (remission) after increase to weekly dosing: 0%
[2]; 2 years
  Patients who became ACR20 responders after increase to weekly dosing: 4%
  Patients who became ACR50 responders after increase to weekly dosing: 2%
  Patients who reached DAS28 < 2.6 (remission) after increase to weekly dosing: 1%
[2]; ACR70 for ≧6 consecutive months over a 2-year period
  Patients with Major Clinical Response after increase to weekly dosing: 1%

## CN(Cc1cnc2nc(N)nc(N)c2n1)c1ccc(C(=O)N[C@@H](CCC(=O)O)C(=O)O)cc1 [placebo+mtx, methotrexate]
[3]; week 24
  relative FACIT-F change from baseline: +9%
[3]
  mean FACIT-F change from baseline: 2.5
[3]; listed as placebo + MTX
  mean FACIT-F change from baseline: +2.5
[4]; week 24
  relative HUI3 change from baseline: +10%
[4]
  mean HUI3 change from baseline: 0.04
[4]; listed as Placebo + mtx
  mean HUI3 change from baseline: 0.04
[4]; listed as placebo + MTX
  mean HUI3 change from baseline: +0.04
[5]
  mean HUI3 improvement from baseline: +0.07
  relative HUI3 improvement from baseline: +18%
[6]; 12 months (blinded)
  mean change from baseline in Total Sharp Score: 2.8
  mean change from baseline in joint erosion score: 1.7
  mean change from baseline in joint space narrowing score: 1.2
[6]; 36 months (open-label)
  mean change from baseline in joint erosion score: 1.7
  mean change from baseline in joint space narrowing score: 1.3
[6]; 36 months (open-label; all patients on adalimumab 40 mg eow + mtx after month 12)
  mean change from baseline in Total Sharp Score: 3.0

Reference: US20120171123A1, “USES AND COMPOSITIONS FOR TREATMENT OF RHEUMATOID ARTHRITIS” (priority 2006, published 2012)
